In the supplement of paper PMC10307832:

Tests used:
Assay in all cases: relative viability (nuclei count vs DMSO), 5 days (fraction); higher = more cells survive
Avagacestat + Tozasertib = compound: NC(=O)[C@@H](CCC(F)(F)F)N(Cc1ccc(-c2ncon2)cc1F)S(=O)(=O)c1ccc(Cl)cc1 [Avagacestat] + Cc1cc(Nc2cc(N3CCN(C)CC3)nc(Sc3ccc(NC(=O)C4CC4)cc3)n2)n[nH]1 [Tozasertib] (partner 0.1 µM)
Outline: (§1)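 Lung cancer cell lines, seeded in 1536-well plates, were treated the following day by pin tool with a single drug or with five library-drug doses (not always all listed) in √10 steps on top of a fixed anchor-drug dose. Cells were fixed and nuclei stained in one step after 5 days, and nuclei were counted. Relative viability is the nuclei count for treated wells divided by that for vehicle wells, reported as medians of duplicate plates.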

Avagacestat + Linsitinib = compound: NC(=O)[C@@H](CCC(F)(F)F)N(Cc1ccc(-c2ncon2)cc1F)S(=O)(=O)c1ccc(Cl)cc1 [Avagacestat] + C[C@]1(O)C[C@@H](c2nc(-c3ccc4ccc(-c5ccccc5)nc4c3)c3c(N)nccn32)C1 [Linsitinib] (partner 1 µM)
Outline: as §1

Avagacestat + OSI-027 = compound: NC(=O)[C@@H](CCC(F)(F)F)N(Cc1ccc(-c2ncon2)cc1F)S(=O)(=O)c1ccc(Cl)cc1 [Avagacestat] + COc1cccc2cc(-c3nc([C@H]4CC[C@H](C(=O)O)CC4)n4ncnc(N)c34)[nH]c12 [OSI-027] (partner 0.5 µM)
Outline: as §1

Avagacestat + Crizotinib = compound: NC(=O)[C@@H](CCC(F)(F)F)N(Cc1ccc(-c2ncon2)cc1F)S(=O)(=O)c1ccc(Cl)cc1 [Avagacestat] + C[C@@H](Oc1cc(-c2cnn(C3CCNCC3)c2)cnc1N)c1c(Cl)ccc(F)c1Cl [Crizotinib] (partner 1 µM)
Outline: as §1

Cell Line | relative viability (Avagacestat + Tozasertib; first compound 0.08 µM) | relative viability (Avagacestat + Tozasertib; first compound 0.253 µM) | relative viability (Avagacestat + Tozasertib; first compound 0.8 µM) | relative viability (Avagacestat + Tozasertib; first compound 2.53 µM) | relative viability (Avagacestat + Tozasertib; first compound 8 µM) | relative viability (Avagacestat + Linsitinib; first compound 0.08 µM) | relative viability (Avagacestat + Linsitinib; first compound 0.253 µM) | relative viability (Avagacestat + Linsitinib; first compound 0.8 µM) | relative viability (Avagacestat + Linsitinib; first compound 2.53 µM) | relative viability (Avagacestat + Linsitinib; first compound 8 µM) | relative viability (Avagacestat + OSI-027; first compound 0.08 µM) | relative viability (Avagacestat + OSI-027; first compound 0.253 µM) | relative viability (Avagacestat + OSI-027; first compound 0.8 µM) | relative viability (Avagacestat + OSI-027; first compound 2.53 µM) | relative viability (Avagacestat + OSI-027; first compound 8 µM) | relative viability (Avagacestat + Crizotinib; first compound 0.08 µM) | relative viability (Avagacestat + Crizotinib; first compound 0.253 µM) | relative viability (Avagacestat + Crizotinib; first compound 0.8 µM) | relative viability (Avagacestat + Crizotinib; first compound 2.53 µM) | relative viability (Avagacestat + Crizotinib; first compound 8 µM)
NCI-H23 | 0.378 | 0.535 | 0.406 | 0.362 | 0.359 | 0.759 | 0.636 | 0.675 | 0.548 | 0.456 | 0.778 | 0.619 | 0.8 | 0.627 | 0.537 | 0.547 | 0.473 | 0.627 | 0.471 | 0.345
NCI-H2126 | 0.81 | 0.859 | 0.906 | 0.334 | 0.778 | 0.757 | 0.705 | 0.696 | 0.706 | 0.67 | 0.847 | 0.721 | 0.703 | 0.616 | 0.669 | 1.07 | 1.14 | 0.977 | 1.04 | 1.04
LXF-289 | 0.19 | 0.119 | 0.211 | 0.131 | 0.212 | 1.02 | 1.02 | 0.957 | 1.02 | 0.82 | 0.817 | 0.757 | 0.703 | 0.673 | 0.804 | 0.852 | 0.941 | 0.795 | 0.816 | 0.774
NCI-H1437 | 0.416 | 0.457 | 0.41 | 0.377 | 0.307 | 1.65 | 1.14 | 1.19 | 0.955 | 0.721 | 0.924 | 0.949 | 0.817 | 0.856 | 0.777 | 1.14 | 1.1 | 1.12 | 1.05 | 0.824
NCI-H647 | – | 0.319 | 0.199 | 0.263 | 0.0556 | 1.78 | 1.35 | 1.12 | 1.16 | 1.19 | 0.552 | 0.773 | 0.575 | 0.559 | 0.572 | 1.31 | 1.41 | 1.19 | 1.03 | 1.07
NCI-H838 | 0.277 | 0.286 | 0.269 | 0.276 | 0.269 | 1.25 | 1.26 | 1.09 | 0.89 | 0.918 | 0.364 | 0.466 | 0.389 | 0.398 | 0.366 | 0.932 | 1.09 | 0.906 | 0.858 | 0.764
NCI-H727 | 0.614 | 0.686 | 0.592 | 0.489 | 0.489 | 0.252 | 0.342 | 0.35 | 0.278 | 0.26 | 0.675 | 0.632 | 0.92 | 0.521 | 0.517 | 0.986 | 0.956 | 1.08 | 0.946 | 0.775
NCI-H661 | 0.356 | 0.381 | 0.361 | 0.363 | 0.37 | 0.736 | 0.713 | 0.634 | – | 0.566 | 0.786 | 0.775 | 0.694 | 0.704 | 0.669 | 1.12 | 1.06 | 1.05 | 1.3 | 0.968
201T | 0.967 | 1.06 | 0.922 | 0.843 | 0.9 | 1.02 | 1.07 | 1.13 | 0.985 | 0.99 | 0.803 | 0.988 | 0.942 | 0.529 | 0.76 | 1.06 | 0.991 | 1.03 | 1.04 | 1.01
PC-3 [JPC-3] | 1.01 | 0.99 | 1.08 | 0.943 | 0.826 | 1.01 | 1.02 | 0.976 | 1.04 | 0.967 | 0.912 | 0.799 | 0.908 | 0.697 | 0.735 | 1.15 | 1.25 | 1.16 | 1.05 | 0.993
HCC-366 | 0.0969 | 0.172 | 0.0909 | 0.0683 | 0.0694 | 1.06 | 0.782 | 0.835 | 0.471 | 0.373 | 1.07 | 1.49 | 1.01 | 0.772 | 0.872 | 0.608 | 0.645 | 0.517 | 0.525 | 0.645
NCI-H1355 | 0.523 | 0.534 | 0.593 | 0.454 | 0.392 | 0.95 | 0.859 | 0.812 | 0.687 | 0.651 | 0.404 | 0.388 | 0.426 | 0.38 | 0.342 | 1.19 | 1.14 | 0.997 | 0.872 | 0.866
NCI-H1299 | – | – | – | – | – | 0.987 | 1.12 | 1 | 0.988 | 0.926 | – | – | – | – | – | 1.01 | 1.05 | 0.952 | 0.98 | 0.91
NCI-H1703 | – | – | – | – | – | 0.982 | 0.768 | 0.854 | 0.784 | 0.93 | – | – | – | – | – | 0.975 | 0.777 | 0.864 | 0.587 | 0.581
NCI-H2170 | 0.807 | 0.782 | 0.812 | 0.72 | 0.646 | – | – | – | – | – | 0.862 | 0.8 | 0.851 | 0.721 | 0.643 | 1.27 | 1.59 | 1.2 | 1.38 | 0.976
NCI-H1650 | 0.47 | 0.378 | 0.468 | 0.393 | 0.333 | – | – | – | – | – | 0.49 | 0.671 | 0.643 | 0.782 | 0.67 | 1.07 | 0.967 | 1.37 | 0.916 | 1.06
EBC-1 | – | – | – | – | – | 0.88 | 0.914 | 1.09 | 0.995 | 0.649 | – | – | – | – | – | 0.213 | 0.196 | 0.2 | 0.21 | 0.203
Calu-6 | – | – | – | – | – | 1.05 | 1.04 | 1.07 | 1.03 | 0.784 | – | – | – | – | – | 0.998 | 0.968 | 0.885 | 0.824 | 0.691
IA-LM | – | – | – | – | – | 1.24 | 0.859 | 1.11 | 1.01 | 0.984 | – | – | – | – | – | 1.98 | 1.36 | 1.09 | 0.879 | 1.1
